Measurements published in ChEMBL document CHEMBL1150023, “Design and syntheses of 4-acylaminopyridine derivatives: Novel high affinity choline uptake enhancers II” (Bioorg Med Chem Lett, 1995).

Experiments:
Type in all cases: functional, organism-based
Conditions in all cases: Hippocampus
[1] = organism: Rattus norvegicus; assay: Effect on the uptake amount of [3H]choline in the hippocampal synaptosomes of AF64A-treated rats at 10e-7 M
[2] = organism: Rattus norvegicus; assay: Effect on the uptake amount of [3H]choline in the hippocampal synaptosomes of AF64A-treated rats at 10e-5 M
[3] = organism: Rattus norvegicus; assay: Effect on the uptake amount of [3H]choline in the hippocampal synaptosomes of AF64A-treated rats at 10e-6 M

| SMILES | HACU improvement [1] [%] | HACU improvement [2] [%] | HACU improvement [3] [%] |
| --- | --- | --- | --- |
| CCCC(=O)Nc1c2c(nc3ccccc13)C1CCC2CC1 | 5 | -3 | -6 |
| CCCC(=O)Nc1c2c(nc3ccccc13)CCCC2 | 13 | 28 | 24 |
| CCCC(=O)Nc1c2c(nc3cccc(C)c13)CCCC2 | -2 | 10 | -4 |
| CCCC(=O)Nc1c2c(nc3ccccc13)CCC(c1ccccc1)C2 (stereo not drawn) | -1 | -6 | -7 |
| CNCC(=O)Nc1c2c(nc3oc(C)c(C)c13)CCCC2 | 14 | 3 | 10 |
| CCCC(=O)Nc1c2c(nc3ccccc13)CCC(C)C2 (stereo not drawn) | -6 | 6 | -16 |
| CCCC(=O)Nc1c2c(nc3ccc(F)cc13)CCCC2 | 2 | 7 | -5 |
| Cc1oc2nc3c(c(NC(=O)CN4CCCC4=O)c2c1C)CCCC3 | 55 | 64 | 72 |
| CCCC(=O)Nc1c2c(nc3scc(C)c13)CCCC2 | 7 | 1 | 3 |
| CCCC(=O)Nc1c2c(nc3ccccc13)C(C)CCC2 (stereo not drawn) | 10 | 16 | 17 |
| CCCC(=O)Nc1c2c(nc3cccc(F)c13)CCCC2 | 9 | 3 | 2 |
| CCCC(=O)Nc1c2c(nc3sc(C)c(C)c13)CCCC2 | 4 | 20 | 11 |
| CCCC(=O)Nc1c2c(nc3ccccc13)CCC(O)C2 (stereo not drawn) | 13 | 10 | 16 |
| Cc1oc2nc3c(c(NC(=O)CN4CC(=O)NC4=O)c2c1C)CCCC3 | 5 | 16 | 12 |
| Cc1oc2nc3c(c(NC(=O)Cn4ccnc4)c2c1C)CCCC3 | 5 | 3 | 4 |
| O=C(CN1CCCC1=O)Nc1c2c(nc3ccccc13)CCCC2 | 15 | 14 | 17 |

| SMILES | HACU improvement [1] [%] | HACU improvement [2] [%] | HACU improvement [3] [%] |
| --- | --- | --- | --- |
| CCCC(=O)Nc1c2c(nc3oc(C)c(C)c13)CCCC2 | 13 | 38 | 20 |
| CCCC(=O)Nc1c2c(nc3ccccc13)CCN(Cc1ccccc1)C2 | 10 | 21 | 11 |
| CCCC(=O)Nc1c2c(nc3ccccc13)CCC1(CC1)C2 | 3 | 12 | 19 |
| CCCC(=O)Nc1c2c(nc3ccccc13)CCN(S(=O)(=O)c1ccccc1)C2 | 26 | 5 | 10 |
| CCCC(=O)Nc1c2c(nc3ccccc13)CCC(C)(C)C2 | -11 | 1 | 3 |
| CCCC(=O)Nc1c2c(nc3sccc13)CCCC2 | 1 | 12 | 1 |
| CCCC(=O)Nc1c2c(nc3ccsc13)CCCC2 | 7 | 15 | 4 |
| CCCC(=O)Nc1c2c(nc3ccccc13)C=CCC2 | 14 | -7 | 8 |
| CCCC(=O)Nc1c2c(nc3cc(F)ccc13)CCCC2 | -1 | -15 | 3 |
| CCCC(=O)Nc1c2c(nc3ccccc13)CCN(C)C2 | 13 | 19 | 9 |
| CCCC(=O)Nc1c2c(nc3ccccc13)CCN(C(=O)c1ccccc1)C2 | 7 | -7 | 0 |
| CCCC(=O)Nc1c2c(nc3ccccc13)C1CCN2CC1 | 7 | 10 | 7 |
| CCCC(=O)Nc1c2c(nc3ccccc13)CCC(=O)C2 | 14 | 14 | 14 |
| CCCC(=O)Nc1c2c(nc3oc(C)nc13)CCCC2 | 4 | 18 | 2 |
| CCCC(=O)Nc1c2c(nc3ncccc13)CCCC2 | 15 | 13 | 10 |
